Numbered stars: 1 amine (or outer) side, 2 acyl side, 3 side chain; on linkers, the order of the positions; unused ones are H or OH. Bridge positions count the residues as written; N and C are the ends. Square brackets hold non-standard residues; d marks the D form. Peptide text beside a SMILES is read from it. X1 = O=S(=O)(F)Oc1cc(C[*:1])cc(C[*:2])c1; X2 = Oc1cc(C[*:1])cc(C[*:2])c1; Pra = C#CC[C@H](N)C(=O)O
Assays:
SARS-CoV-2 omicron BA.2 = type: cell-based
[1] = system: interaction between Omicron BA2 spike and ACE2; type: binding, SARS-CoV-2
BSA = BSA (Bos taurus, UniProt P02769); type: binding; conditions: highest concentration tested
Sequence of BSA (P02769 25-607): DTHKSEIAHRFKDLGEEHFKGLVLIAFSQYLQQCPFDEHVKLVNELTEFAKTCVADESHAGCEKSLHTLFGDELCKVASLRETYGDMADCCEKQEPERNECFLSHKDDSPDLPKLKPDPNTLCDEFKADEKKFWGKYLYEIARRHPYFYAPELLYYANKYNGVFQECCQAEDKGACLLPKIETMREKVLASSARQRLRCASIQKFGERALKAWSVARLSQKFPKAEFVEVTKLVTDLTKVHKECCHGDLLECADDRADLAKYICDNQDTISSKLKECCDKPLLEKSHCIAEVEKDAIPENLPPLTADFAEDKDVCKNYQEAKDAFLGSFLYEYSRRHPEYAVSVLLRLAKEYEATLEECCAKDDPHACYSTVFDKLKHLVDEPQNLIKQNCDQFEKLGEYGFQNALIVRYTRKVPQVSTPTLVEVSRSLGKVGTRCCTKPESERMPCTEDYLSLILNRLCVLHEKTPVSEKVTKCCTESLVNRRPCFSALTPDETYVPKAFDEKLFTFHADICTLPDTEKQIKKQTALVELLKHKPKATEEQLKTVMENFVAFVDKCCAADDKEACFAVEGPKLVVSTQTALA

| Molecule | change of inhibitory potency after 10-fold dilution (SARS-CoV-2 omicron BA.2) | inhibition activity in MSD assay [1] | antiviral activity (SARS-CoV-2 Omicron BA2) | antiviral activity (SARS-CoV-2 Omicron BA1) | antiviral activity (SARS-CoV-2 Omicron BA5) | EC50 (SARS-CoV-2 Omicron BA5) | labeling of BSA (BSA) |
| --- | --- | --- | --- | --- | --- | --- | --- |
| C#CC[C@H](N)C(=O)N[C@@H](CCC(N)=O)C(=O)N[C@H]1CSSC[C@@H](C(=O)NCC(N)=O)NC(=O)[C@H](CC(C)C)NC(=O)[C@H](C(C)C)NC(=O)[C@H](Cc2ccc(O)cc2)NC(=O)[C@H](CC(C)C)NC(=O)[C@H](CC(=O)O)NC(=O)[C@H](CCC(N)=O)NC(=O)[C@H](C(C)C)NC1=O [CP_SW3A_DS] (H-[Pra]QCVQDLYVLCG-NH2; disulfide 3-11) | dramatic loss of activity after dilution |  |  |  |  |  |  |
| C#CC[C@H](NC(=O)[C@H](CCC(N)=O)NC(=O)[C@@H]1CSCc2cc(cc(OS(=O)(=O)F)c2)CSC[C@H](NC(=O)CN)C(=O)N[C@@H](CC(C)C)C(=O)N[C@@H](C(C)C)C(=O)N[C@@H](Cc2ccc(O)cc2)C(=O)N[C@@H](CC(C)C)C(=O)N[C@@H](CC(=O)O)C(=O)N[C@@H](CCC(N)=O)C(=O)N[C@@H](C(C)C)C(=O)N1)C(N)=O [CP_SW3A_S1] (H-GCLVYLDQVCQ[Pra]-NH2; linker 2-10 via X1) |  | loss of inhibition activities | only weak background activity | only weak background activity | only weak background activity |  |  |
| C#CC[C@H](N)C(=O)N[C@@H](CCC(N)=O)C(=O)N[C@H]1CSCc2cc(cc(OS(=O)(=O)F)c2)CSC[C@@H](C(=O)NCC(N)=O)NC(=O)[C@H](C(C)C)NC(=O)[C@H](CCC(N)=O)NC(=O)[C@H](CC(=O)O)NC(=O)[C@H](CC(C)C)NC(=O)[C@H](Cc2ccc(O)cc2)NC(=O)[C@H](C(C)C)NC(=O)[C@H](CC(C)C)NC1=O [CP_SW3A_S2] (H-[Pra]QCLVYLDQVCG-NH2; linker 3-11 via X1) |  | loss of inhibition activities | only weak background activity | only weak background activity | only weak background activity |  |  |
| C#CC[C@H](N)C(=O)N[C@@H](CCC(N)=O)C(=O)N[C@H]1CSCc2cc(O)cc(c2)CSC[C@@H](C(=O)NCC(N)=O)NC(=O)[C@H](CC(C)C)NC(=O)[C@H](C(C)C)NC(=O)[C@H](Cc2ccc(O)cc2)NC(=O)[C@H](CC(C)C)NC(=O)[C@H](CC(=O)O)NC(=O)[C@H](CCC(N)=O)NC(=O)[C@H](C(C)C)NC1=O [CP_SW3A_Bz] (H-[Pra]QCVQDLYVLCG-NH2; linker 3-11 via X2) |  |  | only weak background activity | only weak background activity | only weak background activity |  |  |
| Sotrovimab: monoclonal antibody targeting the spike protein of SARS-CoV-2, positive control [reference compound] |  |  |  |  |  | 7 µM |  |
| C#CC[C@H](N)C(=O)N[C@@H](CCC(N)=O)C(=O)N[C@H]1CSCc2cc(cc(OS(=O)(=O)F)c2)CSC[C@@H](C(=O)NCC(N)=O)NC(=O)[C@H](CC(C)C)NC(=O)[C@H](C(C)C)NC(=O)[C@H](Cc2ccc(O)cc2)NC(=O)[C@H](CC(C)C)NC(=O)[C@H](CC(=O)O)NC(=O)[C@H](CCC(N)=O)NC(=O)[C@H](C(C)C)NC1=O [CP_SW3A] (H-[Pra]QCVQDLYVLCG-NH2; linker 3-11 via X1) |  | strong activity |  |  |  |  | only faint labeling |
